Data published in patent publication US8648105B2, “Diarylthiohydantoin compounds” (The Regents of the University of California, priority 2006, dated 2014).

What was measured:
Assay type in all cases: cell-based
Parameters in all cases: Fold induction, AR response reporter
AR [1] = molecular target: T1, AR (Homo sapiens, UniProt P10275); conditions: AR over expressed LNCaP, absence of R1881
T1 sequence (P10275 1-920): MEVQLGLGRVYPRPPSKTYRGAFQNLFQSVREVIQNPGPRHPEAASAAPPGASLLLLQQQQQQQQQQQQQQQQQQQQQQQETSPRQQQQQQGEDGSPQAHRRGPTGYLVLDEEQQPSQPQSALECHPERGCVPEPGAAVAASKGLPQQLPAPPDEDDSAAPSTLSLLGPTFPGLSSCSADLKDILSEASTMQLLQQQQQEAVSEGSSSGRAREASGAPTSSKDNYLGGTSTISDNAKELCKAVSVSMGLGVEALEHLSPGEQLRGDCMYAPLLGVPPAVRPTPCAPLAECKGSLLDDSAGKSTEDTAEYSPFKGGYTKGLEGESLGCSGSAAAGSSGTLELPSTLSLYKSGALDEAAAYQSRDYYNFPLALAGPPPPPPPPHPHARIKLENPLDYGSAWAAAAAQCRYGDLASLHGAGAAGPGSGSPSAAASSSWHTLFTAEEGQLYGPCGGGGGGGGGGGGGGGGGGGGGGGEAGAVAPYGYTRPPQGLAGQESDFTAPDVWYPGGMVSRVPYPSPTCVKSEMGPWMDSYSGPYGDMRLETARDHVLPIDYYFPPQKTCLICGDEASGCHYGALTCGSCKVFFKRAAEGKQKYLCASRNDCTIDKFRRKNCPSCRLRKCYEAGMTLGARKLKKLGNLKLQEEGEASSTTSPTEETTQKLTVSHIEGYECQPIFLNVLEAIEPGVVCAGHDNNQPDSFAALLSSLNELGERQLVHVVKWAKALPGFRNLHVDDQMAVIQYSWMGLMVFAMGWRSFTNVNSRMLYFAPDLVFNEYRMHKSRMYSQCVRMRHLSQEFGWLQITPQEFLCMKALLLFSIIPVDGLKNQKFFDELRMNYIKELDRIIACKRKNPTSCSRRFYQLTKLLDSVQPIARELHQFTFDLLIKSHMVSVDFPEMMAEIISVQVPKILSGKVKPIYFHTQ

AR [2] = molecular target: T1, AR; conditions: LN-AR, absence of R1881
Method: Activities of AR response reporter were measured.

AR [3] = molecular target: T1, AR; conditions: for inhibitory activity on AR response reporter: hormone refractory LNCaP-AR; for luciferase activity in LNCaP-AR cells: 125 nM to 1000 nM; for luciferase activity in LNCaP-AR cells / rank by relative luciferase activity, most active to least active: FIG. 3; for rank by relative luciferase activity, most active to least active: 500 nM
Method: The compounds were subjected to tests using an artificial AR response reporter system in a hormone refractory prostate cancer cell line. […] After two days of incubation, reporter activities were assayed.

AR [4] = molecular target: T1, AR; conditions: for rank by relative PSA level, most active to least active: 500 nM; for PSA levels of LN-AR cells: 100, 200, 500, and 1000 nM, FIG. 20
Method: It is well established that PSA levels are indicators of AR activities in prostate cancer. […] The LNCaP-AR cells are a line of lymph node carcinoma of prostate cells transduced with a plasmid that makes express androgen receptors. […] After four days incubation, secreted PSA levels were assayed using PSA ELISA kits (American Qualex, San Clemente, Calif.)

[5] = LN/AR cell line, 125 nmol to 1000 nmol

Structure (SMILES): CC1(C)C(=O)N(c2ccc(C#N)c(C(F)(F)F)c2)C(=S)N1CCCCO [Example 29, 4-[3-(4-hydroxybutyl)-4,4-dimethyl-5-oxo-2-thioxoimidazolidin-1-yl]-2-trifluoromethylbenzonitrile, reference compound]
- agonistic activity on secreted PSA (AR [1]): stimulated PSA expression
- agonistic activity on AR response reporter (AR [2]): strongly activated AR
- IC50 (nM) Reporter (AR [3]; LNCaP-AR, 100 pM R1881, two days, No = did not inhibit AR response reporter): No (*)

Structure (SMILES): CN1C(=O)N(c2ccc(C#N)c(C(F)(F)F)c2)C(=O)C12CCCC2 [NC27, 4-(1-methyl-2,4-dioxo-1,3-diaza-spiro[4.4]non-3-yl)-2-trifluoromethylbenzonitrile, reference compound]
- agonistic activity on AR response reporter (AR [2]): strongly activated AR
- inhibitory activity on AR response reporter (AR [3]): no inhibitory activities

Structure (SMILES): N#Cc1ccc(N2C(=O)C3(CCCC3)NC2=S)cc1C(F)(F)F [NC28, 4-(4-oxo-2-thioxo-1,3-diazaspiro[4.4]non-3-yl)-2-trifluoromethylbenzonitrile, reference compound]
- agonistic activity on AR response reporter (AR [2]): strongly activated AR
- inhibitory activity on AR response reporter (AR [3]): no inhibitory activities

Structure (SMILES): CCNC(=S)N=C1N(c2ccc(C#N)c(C(F)(F)F)c2)C(=S)N(c2ccc(C)cc2)C1(C)C [NC34, 1-[3-(4-cyano-3-trifluoromethyl-phenyl)-5,5-dimethyl-2-thioxo-1-p-tolyl-imidazolidin-4-ylidene]-3-ethyl-thiourea]
- agonistic activity on secreted PSA (AR [1]): no agonistic activities
- agonistic activity on AR response reporter (AR [2]): no agonistic activity

Structure (SMILES): Cc1ccc(N2C(=S)N(c3ccc(C#N)c(C(F)(F)F)c3)C(=NC(=S)Nc3ccccc3)C23CCC3)cc1 [NC35, 1-[7-(4-cyano-3-trifluoromethyl-phenyl)-6-thioxo-5-p-tolyl-5,7-diaza-spiro[3.4]oct-8-ylidene]-3-phenyl-thiourea]
- agonistic activity on secreted PSA (AR [1]): no agonistic activities
- agonistic activity on AR response reporter (AR [2]): no agonistic activity

Structure (SMILES): Cc1ccc(N2C(=S)N(c3ccc(C#N)c(C(F)(F)F)c3)C(=NC(=S)Nc3ccc(C#N)c(C(F)(F)F)c3)C23CCC3)cc1 [NC36, 1-(4-Cyano-3-trifluoromethyl-phenyl)-3-[7-(4-cyano-3-trifluoromethyl-phenyl)-6-thioxo-5-p-tolyl-5,7-diaza-spiro[3.4]oct-8-ylidene]-thiourea]
- agonistic activity on secreted PSA (AR [1]): no agonistic activities
- agonistic activity on AR response reporter (AR [2]): no agonistic activity

Structure (SMILES): N#Cc1ccc(N2C(=O)C3(CCC3)N(c3ccc(CCC(N)=O)cc3)C2=S)cc1C(F)(F)F [NC43, 3-{4-[7-(4-cyano-3-trifluoromethylphenyl)-8-oxo-6-thioxo-5,7-diaza-spiro[3.4]oct-5-yl]-phenyl}-propionamide]
- decrease in PSA level of LNCaP-AR cells (comparison) (AR [4]): greater decrease in PSA level of LNCaP-AR cells than NC45 and NC49
- rank by relative PSA level, most active to least active (AR [4]): NC50>NC48>NC7>NC43>NC44>NC49>NC50>NC45>bicalutamide

Structure (SMILES): CNC(=O)CCc1ccc(N2C(=S)N(c3ccc(C#N)c(C(F)(F)F)c3)C(=O)C23CCC3)cc1 [NC44, 3-{4-[7-(4-Cyano-3-trifluoromethylphenyl)-8-oxo-6-thioxo-5,7-diaza-spiro[3.4]oct-5-yl]-phenyl}-N-methyl-propionamide]
- decrease in PSA level of LNCaP-AR cells (comparison) (AR [4]): greater decrease in PSA level of LNCaP-AR cells than NC45 and NC49
- rank by relative PSA level, most active to least active (AR [4]): NC50>NC48>NC7>NC43>NC44>NC49>NC50>NC45>bicalutamide

Structure (SMILES): N#Cc1ccc(N2C(=O)C3(CCC3)N(c3ccc(CCC(=O)NCCO)cc3)C2=S)cc1C(F)(F)F [NC45, 3-{4-[7-(4-cyano-3-trifluoromethylphenyl)-8-oxo-6-thioxo-5,7-diaza-spiro[3.4]oct-5-yl]-phenyl}-N-(2-hydroxyethyl)-propionamide]
- decrease in PSA level of LNCaP-AR cells (comparison) (AR [4]): greater decrease in PSA level than bicalutamide
- rank by relative PSA level, most active to least active (AR [4]): NC50>NC48>NC7>NC43>NC44>NC49>NC50>NC45>bicalutamide

Structure (SMILES): N#Cc1ccc(N2C(=O)C3(CCC3)N(c3ccc(CCCC(N)=O)cc3)C2=S)cc1C(F)(F)F [NC47, 4-{4-[7-(4-Cyano-3-trifluoromethylphenyl)-8-oxo-6-thioxo-5,7-diaza-spiro[3.4]oct-5-yl]-phenyl}-butyramide]
- PSA level (comparison) (AR [4]; [5]): less than the PSA level upon exposure to NC42 and NC46

Structure (SMILES): N#Cc1ccc(N2C(=O)C3(CCC3)N(c3ccc(N4CCNCC4)cc3)C2=S)cc1C(F)(F)F [NC49, 4-[8-Oxo-5-(4-piperazin-1-yl-phenyl)-6-thioxo-5,7-diazaspiro[3.4]oct-7-yl]-2-trifluoromethylbenzonitrile]
- decrease in PSA level of LNCaP-AR cells (comparison) (AR [4]): greater decrease in PSA level than bicalutamide
- rank by relative PSA level, most active to least active (AR [4]): NC50>NC48>NC7>NC43>NC44>NC49>NC50>NC45>bicalutamide

Structure (SMILES): CS(=O)(=O)N1CCN(c2ccc(N3C(=S)N(c4ccc(C#N)c(C(F)(F)F)c4)C(=O)C34CCC4)cc2)CC1 [NC50, 4-{5-[4-(4-methanesulfonylpiperazin-1-yl)-phenyl]-8-oxo-6-thioxo-5,7-diazaspiro[3.4]oct-7-yl}-2-trifluoromethylbenzonitrile]
- decrease in PSA level of LNCaP-AR cells (comparison) (AR [4]): greater decrease in PSA level of LNCaP-AR cells than NC45 and NC49
- rank by relative PSA level, most active to least active (AR [4]): NC50>NC48>NC7>NC43>NC44>NC49>NC50>NC45>bicalutamide

Structure (SMILES): CNC(=O)c1ccc(N2C(=S)N(c3ccc(C#N)c(C(F)(F)F)c3)C(=O)C23CCCC3)cc1F [NC55, 4-(3-(4-Cyano-3-(trifluoromethyl)phenyl)-4-oxo-2-thioxo-1,3-diazaspiro[4.4]nonan-1-yl)-2-fluoro-N-methylbenzamide]
- PSA levels of LN-AR cells (AR [4]): PSA levels of LN-AR cells decreased

Structure (SMILES): CN(C)C(=O)CCCc1ccc(N2C(=S)N(c3ccc(C#N)c(C(F)(F)F)c3)C(=O)C23CCC3)cc1 [NC56, 4-(4-(7-(4-Cyano-3-(trifluoromethyl)phenyl)-8-oxo-6-thioxo-5,7-diazaspiro[3.4]octan-5-yl)phenyl)-N,N-dimethylbutanamide]
- PSA levels of LN-AR cells (AR [4]): PSA levels of LN-AR cells decreased

Structure (SMILES): N#CCCCc1ccc(N2C(=S)N(c3ccc(C#N)c(C(F)(F)F)c3)C(=O)C23CCC3)cc1 [NC57, 4-(5-(4-(3-Cyanopropyl)phenyl)-8-oxo-6-thioxo-5,7-diazaspiro[3.4]octan-7-yl)-2-(trifluoromethyl)benzonitrile]
- PSA levels of LN-AR cells (AR [4]): PSA levels of LN-AR cells decreased

Structure (SMILES): CS(=O)(=O)c1ccc(N2C(=S)N(c3ccc(C#N)c(C(F)(F)F)c3)C(=O)C23CCC3)cc1 [NC66]
- luciferase activity in LNCaP-AR cells (AR [3]): acted to reduce luciferase activity
- rank by relative luciferase activity, most active to least active (AR [3]): NC67>NC68>NC66>NC69>NC77=NC53>bicalutamide

Structure (SMILES): COC(=O)c1ccc(N2C(=S)N(c3ccc(C#N)c(C(F)(F)F)c3)C(=O)C2(C)C)cc1 [NC67]
- luciferase activity in LNCaP-AR cells (AR [3]): acted to reduce luciferase activity
- rank by relative luciferase activity, most active to least active (AR [3]): NC67>NC68>NC66>NC69>NC77=NC53>bicalutamide

Structure (SMILES): CNC(=O)c1ccc(N2C(=S)N(c3ccc(C#N)c(C(F)(F)F)c3)C(=O)C2(C)C)cc1 [NC68]
- luciferase activity in LNCaP-AR cells (AR [3]): acted to reduce luciferase activity
- rank by relative luciferase activity, most active to least active (AR [3]): NC67>NC68>NC66>NC69>NC77=NC53>bicalutamide
- luciferase activity (comparison) (AR [3]; [5]): less than the luciferase activity upon exposure to NC103

Structure (SMILES): N#Cc1ccc(N2C(=O)C3(CCC3)N(c3ccc(O)cc3F)C2=S)cc1C(F)(F)F [NC69]
- luciferase activity in LNCaP-AR cells (AR [3]): acted to reduce luciferase activity
- rank by relative luciferase activity, most active to least active (AR [3]): NC67>NC68>NC66>NC69>NC77=NC53>bicalutamide
